2 compounds from ChEMBL document CHEMBL3639113, “TRPA1 antagonists” (2015) can be followed below.

In this assay the target is Transient receptor potential cation channel subfamily A member 1 (Homo sapiens, UniProt O75762). Description: FLIPR Calcium Assay: Ca2+ influx was measured using a FLIPR calcium assay kit (R8033; Molecular Devices, Sunnyvale, Calif.). The Ca2+ indicator dye was dissolved in Hanks' balanced salt solution supplemented with 20 mM HEPES buffer (HBSS/HEPES) according to the manufacturer instructions. Prior to start of the assay, the medium was removed by aspiration, and cells were loaded with 100 μL Ca2+ dye for 2 to 3 hours at room temperature. […] (4×) solutions of the test compounds were prepared in HBSS/HEPES, and 50 μL were added to the cells at a delivery rate of 10 μL/sec. Changes in fluorescence were measured over time in a fluorometric imaging plate reader (FLIPR, Molecular Devices). Two additions were made over the course of an experimental run. For agonist experiments, assay buffer was added at the 10 s time point, followed by addition of agonist at the 3 minute 10 sec time point.
Chain of Transient receptor potential cation channel subfamily A member 1 (O75762 whole entry): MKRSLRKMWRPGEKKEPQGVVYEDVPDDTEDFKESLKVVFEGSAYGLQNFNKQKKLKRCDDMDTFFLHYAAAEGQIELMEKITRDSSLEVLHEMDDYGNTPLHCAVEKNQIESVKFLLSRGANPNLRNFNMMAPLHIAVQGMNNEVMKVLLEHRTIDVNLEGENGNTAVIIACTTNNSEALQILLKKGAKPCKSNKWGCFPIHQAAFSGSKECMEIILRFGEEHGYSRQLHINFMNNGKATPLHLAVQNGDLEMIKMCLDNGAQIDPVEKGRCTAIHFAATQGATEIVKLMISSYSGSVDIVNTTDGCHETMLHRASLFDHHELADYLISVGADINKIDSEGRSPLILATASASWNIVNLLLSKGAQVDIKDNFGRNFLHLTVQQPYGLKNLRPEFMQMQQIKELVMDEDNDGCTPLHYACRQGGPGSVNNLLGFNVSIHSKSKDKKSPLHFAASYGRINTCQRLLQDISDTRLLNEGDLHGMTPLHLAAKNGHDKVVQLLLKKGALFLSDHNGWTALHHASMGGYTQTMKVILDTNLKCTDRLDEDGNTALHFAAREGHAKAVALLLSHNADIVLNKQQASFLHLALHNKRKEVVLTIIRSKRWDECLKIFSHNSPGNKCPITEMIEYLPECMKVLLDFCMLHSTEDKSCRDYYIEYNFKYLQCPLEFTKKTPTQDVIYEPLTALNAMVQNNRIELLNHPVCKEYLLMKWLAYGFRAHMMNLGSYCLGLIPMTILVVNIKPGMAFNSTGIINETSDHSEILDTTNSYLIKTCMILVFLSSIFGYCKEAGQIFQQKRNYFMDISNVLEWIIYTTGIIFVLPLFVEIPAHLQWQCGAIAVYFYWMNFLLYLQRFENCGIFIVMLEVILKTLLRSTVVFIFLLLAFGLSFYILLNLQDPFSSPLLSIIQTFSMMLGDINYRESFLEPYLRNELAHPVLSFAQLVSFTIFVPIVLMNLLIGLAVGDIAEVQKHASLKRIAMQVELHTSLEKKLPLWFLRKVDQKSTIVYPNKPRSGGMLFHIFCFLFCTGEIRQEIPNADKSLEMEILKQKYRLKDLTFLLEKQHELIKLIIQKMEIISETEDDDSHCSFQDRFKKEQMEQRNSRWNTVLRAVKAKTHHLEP

pIC50: −log10 of the molar value.

Regarding `CCC(=N\O)/C(C)=C/c1ccc(F)c(C#N)c1`, the pIC50 was less than 4.00.
For the compound `CCC(=N\OC)/C(C)=C/c1ccc(F)cc1`, the pIC50 is 5.08.

What is called pIC50 is the negative decadic logarithm of the IC50, by convention in mol/L.
